# From patent publication US9283222B2 (priority 2006, dated 2016)
# Target: Recombinant Human Poly(ADP-Ribose) Polymerase (PARP), PARP-1 (Homo sapiens (Human), UniProt P09874)
# Settings: read-out: PARP-1 (Ki); Table 1; text calls the values EC50s
# Sequence of Recombinant Human Poly(ADP-Ribose) Polymerase (PARP), PARP-1 (P09874 whole entry): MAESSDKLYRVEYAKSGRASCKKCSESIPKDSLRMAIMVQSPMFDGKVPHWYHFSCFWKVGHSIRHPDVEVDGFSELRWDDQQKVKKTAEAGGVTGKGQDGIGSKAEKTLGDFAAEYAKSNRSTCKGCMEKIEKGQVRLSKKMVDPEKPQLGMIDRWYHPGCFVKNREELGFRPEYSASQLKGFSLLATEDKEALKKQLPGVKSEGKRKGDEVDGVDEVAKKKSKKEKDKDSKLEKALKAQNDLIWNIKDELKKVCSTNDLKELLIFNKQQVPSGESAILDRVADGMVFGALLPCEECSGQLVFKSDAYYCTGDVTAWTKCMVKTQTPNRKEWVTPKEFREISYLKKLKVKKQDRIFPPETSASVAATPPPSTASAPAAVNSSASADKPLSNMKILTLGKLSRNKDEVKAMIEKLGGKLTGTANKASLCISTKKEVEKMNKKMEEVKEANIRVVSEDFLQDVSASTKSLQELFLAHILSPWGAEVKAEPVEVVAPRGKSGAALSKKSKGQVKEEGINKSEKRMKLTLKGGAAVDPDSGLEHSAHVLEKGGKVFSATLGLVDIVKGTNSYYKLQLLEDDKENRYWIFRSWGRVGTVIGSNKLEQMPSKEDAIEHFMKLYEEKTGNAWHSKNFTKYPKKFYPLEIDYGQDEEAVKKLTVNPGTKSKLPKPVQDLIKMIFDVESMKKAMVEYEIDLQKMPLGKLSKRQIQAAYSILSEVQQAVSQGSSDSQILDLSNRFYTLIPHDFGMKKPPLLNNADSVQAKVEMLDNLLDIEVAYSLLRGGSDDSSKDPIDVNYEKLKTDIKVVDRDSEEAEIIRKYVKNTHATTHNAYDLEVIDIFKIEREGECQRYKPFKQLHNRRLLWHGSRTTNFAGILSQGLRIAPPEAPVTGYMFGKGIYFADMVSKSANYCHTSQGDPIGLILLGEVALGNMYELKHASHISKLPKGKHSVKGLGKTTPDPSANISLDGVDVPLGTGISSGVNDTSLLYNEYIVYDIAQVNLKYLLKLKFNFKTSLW
row,Ki [µM],Compound
1,0.0027,"NC(=O)C1CCN(C(=O)c2cc(Cc3n[nH]c(=O)c4c3CCCC4)ccc2F)CC1 [Example 498, 1-{2-fluoro-5-[(4-oxo-3,4,5,6,7,8-hexahydrophthalazin-1-yl)methyl]benzoyl}piperidine-4-carboxamide]"
2,0.0009,"O=C(c1cc(Cc2n[nH]c(=O)c3c2NCCC3)ccc1F)N1CCN(c2ncncn2)CC1 [Example 632, 8-(4-fluoro-3-{[4-(1,3,5-triazin-2-yl)piperazin-1-yl]carbonyl}benzyl)-2,3,4,6-tetrahydropyrido[2,3-d]pyridazin-5(1H)-one]"
3,0.0021,"O=C(c1cc(Cc2n[nH]c(=O)c3c2NCCC3)ccc1F)N1CCN(c2ccccc2Cl)CC1 [Example 554, 8-(3-{[4-(2-chlorophenyl)piperazin-1-yl]carbonyl}-4-fluorobenzyl)-2,3,4,6-tetrahydropyrido[2,3-d]pyridazin-5(1H)-one]"
4,0.635,"CCCc1ccccc1NC(=O)c1cccc(Cc2n[nH]c(=O)c3c2CCCC3)c1 [Example 332, 3-((4-oxo-3,4,5,6,7,8-hexahydrophthalazin-1-yl)methyl)-N-(2-propylphenyl)benzamide]"
5,0.098,"O=C(Nc1cccc(Cc2n[nH]c(=O)c3c2CCCC3)c1)c1ccncc1 [Example 211, N-(3-((4-oxo-3,4,5,6,7,8-hexahydrophthalazin-1-yl)methyl)phenyl)isonicotinamide]"
6,0.0013,"O=C(c1cnc(O)c(Cl)c1)N1CCN(C(=O)c2cc(Cc3n[nH]c(=O)c4c3CCCC4)ccc2F)CC1 [Example 723, 4-[3-({4-[(5-chloro-6-hydroxypyridin-3-yl)carbonyl]piperazin-1-yl}carbonyl)-4-fluorobenzyl]-5,6,7,8-tetrahydrophthalazin-1(2H)-one]"

# The remaining lines, values behind:
row,Compound,Ki [µM]
1,"O=C(Cc1cccnc1)Nc1cccc(Cc2n[nH]c(=O)c3c2CCCC3)c1 [Example 216, N-(3-((4-oxo-3,4,5,6,7,8-hexahydrophthalazin-1-yl)methyl)phenyl)-2-pyridin-3-ylacetamide]",0.082
2,NCC(=O)Nc1cccc(Cc2n[nH]c(=O)c3c2CCCC3)c1 [Example 111],0.012
3,"O=C(Nc1cccc(Cc2n[nH]c(=O)c3c2CCCC3)c1)c1ccc(O)nc1 [Example 214, 6-hydroxy-N-(3-((4-oxo-3,4,5,6,7,8-hexahydrophthalazin-1-yl)methyl)phenyl)nicotinamide]",0.007
4,"CCN(CC)c1ccc(C(=O)Nc2cccc(Cc3n[nH]c(=O)c4c3CCCC4)c2)cc1 [Example 189, 4-(diethylamino)-N-(3-((4-oxo-3,4,5,6,7,8-hexahydrophthalazin-1-yl)methyl)phenyl)benzamide]",0.175
5,"Cc1ccc(OCC(=O)Nc2cccc(CCc3n[nH]c(=O)c4c3CCCC4)c2)cc1 [Example 323, 2-(4-methylphenoxy)-N-(3-(2-(4-oxo-3,4,5,6,7,8-hexahydrophthalazin-1-yl)ethyl)phenyl)acetamide]",0.237
6,"CN1CC(NC(=O)c2cccc(Cc3n[nH]c(=O)c4c3CCCC4)c2)C1 [Example 65, N-(1-methylazetidin-3-yl)-3-((4-oxo-3,4,5,6,7,8-hexahydrophthalazin-1-yl)methyl)benzamide]",0.082
7,"O=C(Nc1cccc(Cc2n[nH]c(=O)c3c2CCCC3)c1)c1ccsc1 [Example 197, N-(3-((4-oxo-3,4,5,6,7,8-hexahydrophthalazin-1-yl)methyl)phenyl)thiophene-3-carboxamide]",0.146
8,"Cc1cc(NC(=O)c2cccc(Cc3n[nH]c(=O)c4c3CCCC4)c2)ccc1Br [Example 345, N-(4-bromo-3-methylphenyl)-3-((4-oxo-3,4,5,6,7,8-hexahydrophthalazin-1-yl)methyl)benzamide]",0.149
9,"O=C(Nc1ccc2ncccc2c1)c1cccc(Cc2n[nH]c(=O)c3c2CCCC3)c1 [Example 366, 3-((4-oxo-3,4,5,6,7,8-hexahydrophthalazin-1-yl)methyl)-N-quinolin-6-ylbenzamide]",0.023
10,"O=C(Nc1cccc(Cc2n[nH]c(=O)c3c2CCCC3)c1)c1cncs1 [Example 206, N-(3-((4-oxo-3,4,5,6,7,8-hexahydrophthalazin-1-yl)methyl)phenyl)-1,3-thiazole-5-carboxamide]",0.018
